In patent US10231946B2, “Methods of treating ischemic organ damage and other disorders” (Zafgen, Inc., priority 2013, dated 2019):

Assays:
Type in all cases: in vivo, human
sRAGE = sRAGE study in obese patients treated twice weekly for 81 days; conditions: 0.6, 1.2 or 2.4 mg twice weekly for 81 days, FIG. 1
Protocol: (§1) Obese patients were treated in three cohorts with intravenous administration of a formulation of the compound A. The compound was intravenously administered to each patient of a cohort (except for a placebo cohort) twice weekly for 81 days. Each of patients in the three non-placebo cohorts received either 0.6 mg of compound A (cohort 1); 1.2 mg (cohort 2); or 2.4 mg (cohort 3) doses of the compound at the time of administration. The trial was conducted under the appropriate government and medical supervision.

adiponectin [1] = assay: Plasma adiponectin after twelve weeks (81 days) of treatment in obese patients; conditions: doses 0 (placebo), 0.6, 1.2 and 2.4 mg, FIG. 2
Protocol: as §1

adiponectin [2] = assay: Plasma adiponectin (total, ALPCO ELISA; high molecular weight form) after 4 weeks of intravenous treatment in obese patients

With CO[C@@H]1[C@H](OC(=O)/C=C/c2ccc(OCCN(C)C)cc2)CC[C@]2(CO2)[C@H]1[C@@]1(C)O[C@@H]1CC=C(C)C.O=C(O)C(=O)O [6-O-(4-dimethylaminoethoxy)cinnamoyl fumagillol oxalate] the “levels of sRAGE in patients' serum” value (sRAGE) was “increase”.
For CO[C@@H]1[C@H](OC(=O)C=Cc2ccc(OCCN(C)C)cc2)CC[C@]2(CO2)[C@H]1[C@@]1(C)O[C@@H]1CC=C(C)C [Compound A, O-(4-dimethylaminoethoxycinnamoyl)fumagillol], the plasma adiponectin (adiponectin [1]) was “dose proportional increases”, the total plasma adiponectin (adiponectin [2]; after 4 weeks of intravenous treatment versus placebo, ALPCO ELISA, FIG. 3) was “increases in total plasma adiponectin” and the “high molecular weight form of adiponectin” value (adiponectin [2]; after 4 weeks of intravenous treatment with 1.9 mg versus placebo, FIG. 4) was “increases in the high molecular weight form of adiponectin”.
